≈ marks a conversion by molar mass, not a printed value. Calls of active or inactive are those of the source. No cut-off for these calls is given here.
Columns and labels:
Assay type in all cases: functional
Klebsiella pneumoniae [1] = experiment: Antibacterial activity against Klebsiella pneumoniae after 24 hrs by broth dilution test
Penicillium chrysogenum [2] = experiment: Antifungal activity against Penicillium chrysogenum after 48 hrs by broth dilution test
Pseudomonas aeruginosa [3] = experiment: Antibacterial activity against Pseudomonas aeruginosa after 24 hrs by broth dilution test
Klebsiella pneumoniae [4] = experiment: Antibacterial activity against Klebsiella pneumoniae at 100 ug/well after 24 hrs by agar well diffusion method; conditions: for zone of inhibition at 100 µg/disc: read-out: DIZ
Pseudomonas aeruginosa [5] = experiment: Antibacterial activity against Pseudomonas aeruginosa after 24 hrs
Aspergillus niger [6] = experiment: Antifungal activity against Aspergillus niger at 50 ug/well after 48 hrs by agar well diffusion method; conditions: read-out: DIZ
Bacillus subtilis [7] = experiment: Antibacterial activity against Bacillus subtilis after 24 hrs
Pseudomonas aeruginosa [8] = experiment: Antibacterial activity against Pseudomonas aeruginosa at 50 ug/well after 24 hrs by agar well diffusion method; conditions: for zone of inhibition at 50 µg/disc: read-out: DIZ
Penicillium chrysogenum [9] = experiment: Antifungal activity against Penicillium chrysogenum after 48 hrs
Bacillus subtilis [10] = experiment: Antibacterial activity against Bacillus subtilis at 50 ug/well after 24 hrs by agar well diffusion method; conditions: for zone of inhibition at 50 µg/disc: read-out: DIZ
Klebsiella pneumoniae [11] = experiment: Antibacterial activity against Klebsiella pneumoniae at 50 ug/well after 24 hrs by agar well diffusion method; conditions: for zone of inhibition at 50 µg/disc: read-out: DIZ
Penicillium chrysogenum [12] = experiment: Antifungal activity against Penicillium chrysogenum at 50 ug/well after 48 hrs by agar well diffusion method; conditions: read-out: DIZ
Staphylococcus aureus [13] = experiment: Antibacterial activity against Staphylococcus aureus at 50 ug/well after 24 hrs by agar well diffusion method; conditions: for zone of inhibition at 50 µg/disc: read-out: DIZ
Staphylococcus aureus [14] = experiment: Antibacterial activity against Staphylococcus aureus after 24 hrs
Penicillium chrysogenum [15] = experiment: Antifungal activity against Penicillium chrysogenum at 100 ug/well after 48 hrs by agar well diffusion method; conditions: read-out: DIZ
Staphylococcus aureus [16] = experiment: Antibacterial activity against Staphylococcus aureus after 24 hrs by broth dilution test
Bacillus subtilis [17] = experiment: Antibacterial activity against Bacillus subtilis at 100 ug/well after 24 hrs by agar well diffusion method; conditions: for zone of inhibition at 100 µg/disc: read-out: DIZ
Klebsiella pneumoniae [18] = experiment: Antibacterial activity against Klebsiella pneumoniae after 24 hrs
Aspergillus niger [19] = experiment: Antifungal activity against Aspergillus niger after 48 hrs by broth dilution test
Staphylococcus aureus [20] = experiment: Antibacterial activity against Staphylococcus aureus at 100 ug/well after 24 hrs by agar well diffusion method; conditions: for zone of inhibition at 100 µg/disc: read-out: DIZ
Pseudomonas aeruginosa [21] = experiment: Antibacterial activity against Pseudomonas aeruginosa at 100 ug/well after 24 hrs by agar well diffusion method; conditions: for zone of inhibition at 100 µg/disc: read-out: DIZ
Aspergillus niger [22] = experiment: Antifungal activity against Aspergillus niger at 100 ug/well after 48 hrs by agar well diffusion method; conditions: read-out: DIZ
Bacillus subtilis [23] = experiment: Antibacterial activity against Bacillus subtilis after 24 hrs by broth dilution test
Aspergillus niger [24] = experiment: Antifungal activity against Aspergillus niger after 48 hrs

Row | SMILES | MIC (Klebsiella pneumoniae [1]) [µg/mL] | MIC (Penicillium chrysogenum [2]) [µg/mL] | MIC (Pseudomonas aeruginosa [3]) [µg/mL] | zone of inhibition at 100 µg/disc (Klebsiella pneumoniae [4]) [mm] | MBC (Pseudomonas aeruginosa [5]) [µg/mL] | zone of inhibition at 50 µg/disc (Aspergillus niger [6]) [mm] | MBC (Bacillus subtilis [7]) [µg/mL] | zone of inhibition at 50 µg/disc (Pseudomonas aeruginosa [8]) [mm] | zone of inhibition at 50 µg/disc (Bacillus subtilis [10]) [mm] | zone of inhibition at 50 µg/disc (Klebsiella pneumoniae [11]) [mm] | zone of inhibition at 50 µg/disc (Penicillium chrysogenum [12]) [mm] | zone of inhibition at 50 µg/disc (Staphylococcus aureus [13]) [mm] | zone of inhibition at 100 µg/disc (Penicillium chrysogenum [15]) [mm] | MIC (Staphylococcus aureus [16]) [µg/mL] | zone of inhibition at 100 µg/disc (Bacillus subtilis [17]) [mm] | MIC (Aspergillus niger [19]) [µg/mL] | zone of inhibition at 100 µg/disc (Staphylococcus aureus [20]) [mm] | zone of inhibition at 100 µg/disc (Pseudomonas aeruginosa [21]) [mm] | zone of inhibition at 100 µg/disc (Aspergillus niger [22]) [mm] | MIC (Bacillus subtilis [23]) [µg/mL] | other results
1 | O=S(=O)(c1ccc(Cl)cc1)c1c(-c2ccc(Cl)cc2)nn(-c2ccccc2)c1-c1ccc(-c2c(S(=O)(=O)c3ccc(Cl)cc3)c(-c3ccc(Cl)cc3)nn2-c2ccccc2)cc1 | 100 (≈ 107 µM) | 25 (≈ 26.8 µM) | 50 (≈ 53.6 µM) | 27 | > 200 | 34 | 200 (≈ 214 µM) | 20 | 32 | 25 | 28 | 29 | 31 | 50 (≈ 53.6 µM) | 34 | 50 (≈ 53.6 µM) | 31 | 22 | 37 | 50 (≈ 53.6 µM) | MFC (Penicillium chrysogenum [9]): > 100 µg/mL; MBC (Staphylococcus aureus [14]): > 200 µg/mL; MBC (Klebsiella pneumoniae [18]): > 200 µg/mL; MFC (Aspergillus niger [24]): > 200 µg/mL
2 | O=C(N[C@H](CO)[C@H](O)c1ccc([N+](=O)[O-])cc1)C(Cl)Cl [CHLORAMPHENICOL] | 12.5 (≈ 38.7 µM) |  | 6.25 (≈ 19.3 µM) | 42 |  |  |  | 27 | 34 | 40 |  | 33 |  | 6.25 (≈ 19.3 µM) | 38 |  | 35 | 30 |  | 6.25 (≈ 19.3 µM) | 
3 | Cc1ccc(S(=O)(=O)c2c(-c3ccc(Cl)cc3)noc2-c2ccc(-c3onc(-c4ccc(Cl)cc4)c3S(=O)(=O)c3ccc(C)cc3)cc2)cc1 | 100 (≈ 135 µM) | 25 (≈ 33.7 µM) | 50 (≈ 67.4 µM) | 28 | > 200 | 28 | 100 (≈ 135 µM) | 22 | 33 | 26 | 32 | 30 | 34 | 50 (≈ 67.4 µM) | 36 | 50 (≈ 67.4 µM) | 32 | 24 | 30 | 25 (≈ 33.7 µM) | MFC (Penicillium chrysogenum [9]): 100 µg/mL (≈ 135 µM); MBC (Staphylococcus aureus [14]): 200 µg/mL (≈ 270 µM); MBC (Klebsiella pneumoniae [18]): > 200 µg/mL; MFC (Aspergillus niger [24]): > 200 µg/mL
4 | O=S(=O)(c1ccccc1)c1c(-c2ccc(Cl)cc2)noc1-c1ccc(-c2onc(-c3ccc(Cl)cc3)c2S(=O)(=O)c2ccccc2)cc1 | 100 (≈ 140 µM) | 25 (≈ 35 µM) | 50 (≈ 70.1 µM) | 30 | 200 (≈ 280 µM) | 29 | 50 (≈ 70.1 µM) | 24 | 35 | 28 | 34 | 31 | 36 | 50 (≈ 70.1 µM) | 37 | 50 (≈ 70.1 µM) | 33 | 26 | 31 | 25 (≈ 35 µM) | MFC (Penicillium chrysogenum [9]): 100 µg/mL (≈ 140 µM); MBC (Staphylococcus aureus [14]): 200 µg/mL (≈ 280 µM); MBC (Klebsiella pneumoniae [18]): > 200 µg/mL; MFC (Aspergillus niger [24]): 200 µg/mL (≈ 280 µM)
5 | O=S(=O)(c1ccc(Cl)cc1)c1c(-c2ccc(Cl)cc2)noc1-c1ccc(-c2onc(-c3ccc(Cl)cc3)c2S(=O)(=O)c2ccc(Cl)cc2)cc1 | 25 (≈ 31.9 µM) | 25 (≈ 31.9 µM) | 12.5 (≈ 16 µM) | 34 | 50 (≈ 63.9 µM) | 30 | 25 (≈ 31.9 µM) | 25 | 35 | 32 | 35 | 32 | 37 | 12.5 (≈ 16 µM) | 38 | 12.5 (≈ 16 µM) | 34 | 27 | 33 | 12.5 (≈ 16 µM) | MFC (Penicillium chrysogenum [9]): 50 µg/mL (≈ 63.9 µM); MBC (Staphylococcus aureus [14]): 50 µg/mL (≈ 63.9 µM); MBC (Klebsiella pneumoniae [18]): 100 µg/mL (≈ 128 µM); MFC (Aspergillus niger [24]): 100 µg/mL (≈ 128 µM)
6 | CC(=O)N1CCN(c2ccc(OCC3COC(Cn4ccnc4)(c4ccc(Cl)cc4Cl)O3)cc2)CC1 (centres undefined) [KETOCONAZOLE] |  | 12.5 (≈ 23.5 µM) |  |  |  | 33 |  |  |  |  | 36 |  | 38 |  |  | 6.25 (≈ 11.8 µM) |  |  | 36 |  | 
7 | Cc1ccc(S(=O)(=O)C2C(c3ccc(Cl)cc3)=NN(c3ccccc3)C2c2ccc(C3C(S(=O)(=O)c4ccc(C)cc4)C(c4ccc(Cl)cc4)=NN3c3ccccc3)cc2)cc1 (centres undefined) |  |  |  | 10 |  | 12 |  |  | 11 | 8 | 14 | 9 | 16 |  | 13 |  | 11 |  | 14 |  | diameter of the inhibition zone (DIZ) (Pseudomonas aeruginosa [8]): inactive; diameter of the inhibition zone (DIZ) (Pseudomonas aeruginosa [21]): inactive
8 | COc1ccc(-c2noc(-c3ccc(-c4onc(-c5ccc(OC)cc5)c4S(=O)(=O)c4ccccc4)cc3)c2S(=O)(=O)c2ccccc2)cc1 |  |  |  | 21 |  | 27 |  | 16 | 26 | 18 | 26 | 20 | 29 |  | 28 |  | 23 | 18 | 30 |  | 
9 | COc1ccc(C2=NN(c3ccccc3)C(c3ccc(C4C(S(=O)(=O)c5ccc(C)cc5)C(c5ccc(OC)cc5)=NN4c4ccccc4)cc3)C2S(=O)(=O)c2ccc(C)cc2)cc1 (centres undefined) |  |  |  |  |  | 8 |  |  |  |  | 10 |  | 13 |  |  |  |  |  | 9 |  | diameter of the inhibition zone (DIZ) (Klebsiella pneumoniae [4]): inactive; diameter of the inhibition zone (DIZ) (Pseudomonas aeruginosa [8]): inactive; diameter of the inhibition zone (DIZ) (Bacillus subtilis [10]): inactive; diameter of the inhibition zone (DIZ) (Klebsiella pneumoniae [11]): inactive; diameter of the inhibition zone (DIZ) (Staphylococcus aureus [13]): inactive; diameter of the inhibition zone (DIZ) (Bacillus subtilis [17]): inactive; diameter of the inhibition zone (DIZ) (Staphylococcus aureus [20]): inactive; diameter of the inhibition zone (DIZ) (Pseudomonas aeruginosa [21]): inactive
10 | COc1ccc(C2=NOC(c3ccc(C4ON=C(c5ccc(OC)cc5)C4S(=O)(=O)c4ccc(Cl)cc4)cc3)C2S(=O)(=O)c2ccc(Cl)cc2)cc1 (centres undefined) |  |  |  | 11 |  | 14 |  |  | 13 | 9 | 16 | 9 | 19 |  | 15 |  | 12 |  | 16 |  | diameter of the inhibition zone (DIZ) (Pseudomonas aeruginosa [8]): inactive; diameter of the inhibition zone (DIZ) (Pseudomonas aeruginosa [21]): inactive
11 | COc1ccc(-c2nn(-c3ccccc3)c(-c3ccc(-c4c(S(=O)(=O)c5ccc(C)cc5)c(-c5ccc(OC)cc5)nn4-c4ccccc4)cc3)c2S(=O)(=O)c2ccc(C)cc2)cc1 |  |  |  | 15 |  | 19 |  | 11 | 20 | 13 | 22 | 15 | 24 |  | 22 |  | 18 | 13 | 21 |  | 

Source: ChEMBL document CHEMBL3112509, “Synthesis and antimicrobial activity of (1,4-phenylene)bis(arylsulfonylpyrazoles and isoxazoles)” (2014)
